Tests used:
Assay in all cases: relative viability (nuclei count vs DMSO), 5 days (fraction); higher = more cells survive
Zosuquidar + Crizotinib = compound: O[C@@H](COc1cccc2ncccc12)CN1CCN([C@@H]2c3ccccc3[C@@H]3[C@H](c4ccccc42)C3(F)F)CC1 [Zosuquidar] + C[C@@H](Oc1cc(-c2cnn(C3CCNCC3)c2)cnc1N)c1c(Cl)ccc(F)c1Cl [Crizotinib] (partner 1 µM)
Summary of the method: (§1)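 Relative viability was taken as the ratio of nuclei in treated wells to nuclei in vehicle wells. Lung cancer cell lines in 1536-well plates received compounds by pin tool one day after seeding, either one drug alone or a fixed anchor-drug dose plus five library-drug doses (not always all listed) in √10 steps. Nuclei were counted on 4× images after 5 days of treatment, and values are medians of duplicate plates.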

Kobe2602 + Lapatinib = compound: C1=CC(=CC=C1NC(=S)NNC2=C(C=C(C=C2[N+](=O)[O-])C(F)(F)F)[N+](=O)[O-])F [Kobe2602] + CS(=O)(=O)CCNCc1ccc(-c2ccc3ncnc(Nc4ccc(OCc5cccc(F)c5)c(Cl)c4)c3c2)o1 [Lapatinib] (partner 2 µM)
Summary of the method: as §1

Zosuquidar + Palbociclib = compound: O[C@@H](COc1cccc2ncccc12)CN1CCN([C@@H]2c3ccccc3[C@@H]3[C@H](c4ccccc42)C3(F)F)CC1 [Zosuquidar] + CC(=O)c1c(C)c2cnc(Nc3ccc(N4CCNCC4)cn3)nc2n(C2CCCC2)c1=O [Palbociclib] (partner 0.5 µM)
Summary of the method: as §1

Zosuquidar + Trametinib = compound: O[C@@H](COc1cccc2ncccc12)CN1CCN([C@@H]2c3ccccc3[C@@H]3[C@H](c4ccccc42)C3(F)F)CC1 [Zosuquidar] + CC(=O)Nc1cccc(-n2c(=O)n(C3CC3)c(=O)c3c(Nc4ccc(I)cc4F)n(C)c(=O)c(C)c32)c1 [Trametinib] (partner 0.02 µM)
Summary of the method: as §1

Cell Line | relative viability (Zosuquidar + Crizotinib; first compound 0.01 µM) | relative viability (Zosuquidar + Crizotinib; first compound 0.03162 µM) | relative viability (Zosuquidar + Crizotinib; first compound 0.1 µM) | relative viability (Zosuquidar + Crizotinib; first compound 0.3162 µM) | relative viability (Zosuquidar + Crizotinib; first compound 1 µM) | relative viability (Kobe2602 + Lapatinib; first compound 0.2 µM) | relative viability (Kobe2602 + Lapatinib; first compound 0.6325 µM) | relative viability (Kobe2602 + Lapatinib; first compound 2 µM) | relative viability (Kobe2602 + Lapatinib; first compound 6.325 µM) | relative viability (Kobe2602 + Lapatinib; first compound 20 µM) | relative viability (Zosuquidar + Palbociclib; first compound 0.01 µM) | relative viability (Zosuquidar + Palbociclib; first compound 0.03162 µM) | relative viability (Zosuquidar + Palbociclib; first compound 0.1 µM) | relative viability (Zosuquidar + Palbociclib; first compound 0.3162 µM) | relative viability (Zosuquidar + Palbociclib; first compound 1 µM) | relative viability (Zosuquidar + Trametinib; first compound 0.01 µM) | relative viability (Zosuquidar + Trametinib; first compound 0.03162 µM) | relative viability (Zosuquidar + Trametinib; first compound 0.1 µM) | relative viability (Zosuquidar + Trametinib; first compound 0.3162 µM) | relative viability (Zosuquidar + Trametinib; first compound 1 µM)
NCI-H358 | 0.602 | 0.497 | 0.807 | 0.497 | 0.532 | 0.448 | 0.485 | 0.451 | 0.451 | 0.452 | 0.119 | 0.148 | 0.132 | 0.16 | 0.136 | 0.133 | 0.132 | 0.155 | 0.125 | 0.125
HCC-15 | 0.821 | 0.865 | 0.71 | 0.856 | 0.874 | 0.856 | 0.937 | 0.81 | 0.863 | 0.809 | 0.721 | 0.689 | 0.702 | 0.723 | 0.715 | 0.393 | 0.374 | 0.345 | 0.397 | 0.38
PC-3 [JPC-3] | 0.861 | 0.981 | 0.878 | 0.964 | 0.946 | 0.488 | 0.457 | 0.434 | 0.477 | 0.495 | 0.554 | 0.52 | 0.542 | 0.507 | 0.473 | 0.78 | 0.628 | 0.667 | 0.692 | 0.699
HOP-62 | 0.829 | 1.01 | 0.85 | 1 | 0.864 | 1.06 | 1.04 | 0.951 | 0.94 | 1.04 | 0.444 | 0.535 | 0.444 | 0.426 | 0.401 | 0.384 | 0.404 | 0.393 | 0.396 | 0.37
NCI-H460 | 0.813 | 0.906 | 1.01 | 0.916 | 1.02 | 0.962 | 0.983 | 1.06 | 1 | 0.999 | 0.15 | 0.18 | 0.203 | 0.171 | 0.19 | 0.13 | 0.142 | 0.157 | 0.239 | 0.0685
NCI-H727 | 0.905 | 0.925 | 0.732 | 0.798 | 0.925 | 0.885 | 0.783 | 0.879 | 0.996 | 0.986 | 0.596 | 0.607 | – | 0.599 | 0.668 | 0.391 | 0.378 | – | 0.394 | 0.383
NCI-H838 | 0.802 | 0.789 | 0.849 | 0.901 | 0.779 | 0.905 | 1.14 | 0.96 | 1 | 0.87 | 0.217 | 0.223 | 0.218 | 0.225 | 0.227 | 0.561 | 0.465 | 0.487 | 0.617 | 0.509
NCI-H1734 | 0.64 | 0.566 | 0.662 | 0.72 | 0.705 | 1.06 | 1.11 | 1.14 | 1.26 | 1.03 | 0.337 | 0.383 | 0.404 | 0.306 | 0.344 | 0.591 | 0.773 | 0.658 | 0.734 | 0.623
EKVX | 0.951 | 1.01 | 0.883 | 0.995 | 0.705 | 0.207 | 0.223 | 0.221 | 0.184 | 0.267 | 0.377 | 0.39 | – | 0.411 | 0.375 | 0.33 | 0.415 | – | 0.359 | 0.335
NCI-H647 | 1.03 | 1.09 | 1.03 | 1.14 | 1.1 | 1.09 | 0.937 | 0.943 | 0.938 | 1.01 | 0.386 | 0.406 | 0.452 | 0.377 | 0.361 | 0.444 | 0.457 | 0.419 | 0.549 | 0.484
LOU-NH91 | 0.733 | 0.738 | 0.691 | 0.736 | 0.736 | 0.706 | 0.774 | 0.718 | 0.801 | 0.805 | 0.488 | 0.539 | 0.529 | 0.552 | 0.499 | 0.782 | 0.809 | 0.695 | 0.808 | 0.785
COR-L23 | 0.661 | 0.699 | 0.787 | 0.647 | 0.716 | 0.856 | 1.05 | 1.02 | 0.876 | 0.907 | 0.295 | 0.328 | 0.301 | 0.354 | 0.314 | 0.573 | 0.639 | 0.507 | 0.811 | 0.505
NCI-H1437 | 0.868 | 0.994 | 0.92 | 0.911 | 0.897 | 0.815 | 0.847 | 0.723 | 0.79 | 0.673 | 0.3 | 0.333 | 0.348 | 0.272 | 0.32 | 0.508 | 0.587 | 0.507 | 0.762 | 0.533
EPLC-272H | 0.899 | 0.901 | 0.97 | 0.813 | 0.751 | 1.05 | 0.956 | 0.916 | 0.853 | 1.01 | 0.32 | 0.362 | 0.298 | 0.31 | 0.336 | 0.285 | 0.274 | 0.278 | 0.276 | 0.285
